This passage reports IC50 results from patent publication US11149021B2, “N-(azaaryl)cyclolactam-1-carboxamide derivative, preparation method therefor, and use thereof” (Abbisko Therapeutics Co., Ltd., priority 2017, dated 2021).

Where two headings read alike, the source gives them in different places.

In test [1] the target is T1, CSF-1R (Homo sapiens, UniProt P07333).
T1 construct: 3.95 nM of CSF-1R, 500 μM of ATP
The experiment in a line: CSF-1R in vitro biochemical kinase study (ADP-Glo assay). A general note: ADP-Glo first removes unused ATP, then detects ADP through luciferase.

Test [2] concerns the target KIT (Homo sapiens, UniProt P10721). Kind of test: KIT in vitro biochemical kinase study (Caliper EZ Reader). The note with it: * = average of multiple tests; read-out: Enzymatic experiment KIT IC50. How it is done:
(§1) 8. the compound IC50 value was measured by using a plate reader (Tecan, M1000) and a four-parameter curve was generated in Graphpad Prism. The enzymatic activities of compounds in the specific embodiments are shown in Table 1. • B. KIT/PDGFRA in vitro biochemical kinase study • 1. Preparation of 1-fold kinase buffer and stop solution • 1.1. 1-fold kinase buffer: 50 mM HEPES, pH 7.5, 0.0015% Brij-35. • 1.2 stop solution: 100 mM HEPES, pH 7.5, 0.015% Brij-35, 0.2% Coating Reagent #3, 50 mM EDTA • 2 Preparation of compound solution • 2.1 Dilution of compound solution • 1) The final concentration of the compound solution was 40 μM, and the concentration of the prepared stock solution was 50 times of the final concentration, i.e., 2 mM. • 2) 80 μL of 100% DMSO was added to the second well of a 96-well plate, and then 20 μL of 10 mM compound solution was added to obtain 2 mM compound solution. 60 μL of 100% DMSO was added to other wells. 20 μL solution was taken from the second well and added to the third well, which was diluted by 4 times. This serial 4-time dilution was conducted in sequence for the total of 10 concentration. • 2.2 5-fold compound solution transferred to a reaction plate • 1) 10 μL solution was taken from each well of the above 96-well plate and added to another 96-well plate, and 90 µl of kinase buffer was added in each well of new plate. • 2) 5 μL solution was taken from the above 96-well plate and added to a 384-well reaction plate. • 2.3 Kinase reaction • 1) KIT/PDGFRA kinase was added to the 1-fold kinase buffer solution to obtain a 2.5-fold kinase solution. • 2) FAM-labeled polypeptide and ATP were added to the 1-fold kinase buffer solution to obtain a 2.5-fold substrate solution. • 3) 10 μL of 2.5-fold kinase solution was added to the 384-well reaction plate, which already contained 5 μL of 5-fold compound in 10% DMSO. […] Percent inhibition=(max-conversion)/(max-min)×100
(§2) 3) The IC50 value was fit with XLFit excel add-in version 5.4.0,8: Fitting formula: Y=Bottom+(Top-Bottom)/(1+(IC50/X)^HillSlope).
(§3) CSF-1R cell proliferation study

For test [3], the target named is PDGFRA (Homo sapiens, UniProt P16234). The experiment in a line: PDGFRA in vitro biochemical kinase study (Caliper EZ Reader). The settings on record: * = average of multiple tests; read-out: Enzymatic experiment PDGFRA IC50. How it is done: as §1, §2, §3
Test [4] relates to M-NFS-60 mouse myeloid leukemia lymphocytes. The experiment in a line: CSF-1R cell proliferation study (Cell Titer Glo).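 Also: M-CSF-driven proliferation, viable cells quantified as ATP by luminescence, compounds tested as 3-fold serial dilutions, values from four-parameter curve fits.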 It is filed as cell-based. The settings on record: Lymphocyte, 72 h. (In general: In ATP-based viability assays light output follows the ATP content of the culture.)
Method: Functional effects of compounds on cell proliferation were evaluated by using Cell Titer Glo (CTG) study in the present invention. […] Since ATP is an index for viable cell metabolism, CTG (Promega, #G7573) reagent is a homogeneous detection method for detecting the number of viable cells in the culture by quantifying ATP. Therefore, compound-mediated inhibition for cell proliferation/survival was evaluated by quantifying ATP content in cells, and the specific experimental process was as follows:
3. 10 μL of culture medium containing M-CSF with 10-fold of the final concentration was then added to each well;
4. dosage effect was evaluated by testing the 3-fold serial dilutions of the compound;
5. after the cells were incubated for 3 days at 37° C. and 5% CO2, the inhibition on cell survival was quantified after 50 μL of CTG was added and the luminescence assay was performed;
6. the compound concentration leading to half maximal inhibitory (IC50) and the compound concentration leading to absolute half maximal inhibitory (Absolute IC50) was measured by a plate reader (M1000, Tecan) and a four-parameter curve fit in Graphpad Prism 7.
The test system of test [5] is M-07e human cytomegalic leukemia cells. Kind of test: CSF-1R-related cell proliferation experiment, KIT (Cell Titer Glo). Type of test: cell-based. The note with it: 72 h, read-out: Cytological experiment KIT IC50 (nM).
Method: (§4) Functional effects of compounds on the proliferation of several cell lines were evaluated by Cell Titer Glo (CTG) studies in the present invention, and effects of the compounds on the proliferation of different cells were evaluated to determine the selectivity of the compounds. […] No. CBP60115) were cultured in an incubator under conditions of RPM11640 (Gibco, cat. […] No. CBP60522) were cultured in an incubator under conditions of IMDM (Invitrogen, cat. […] Since ATP is an index for viable cell metabolism, CTG (Promega, #G7573) reagent is a homogeneous detection method for detecting the number of viable cells in the culture by quantifying ATP. Therefore, compound-mediated inhibition for cell proliferation/survival was evaluated by quantifying ATP content in cells, and the specific experimental process was as follows.
For test [6], the system named is MV-4-11 human acute monocytic leukemia cells. Kind of test: CSF-1R-related cell proliferation experiment, FLT3 (Cell Titer Glo). Type of test: cell-based. The settings on record: MV4-11, 72 h, read-out: Cytological experiment FLT3 IC50 (nM).
Method: as §4
For test [7], the system named is NCI-H1703 human non-small cell lung squamous carcinoma cells. Kind of test: CSF-1R-related cell proliferation experiment, PDGFRA (Cell Titer Glo). It is filed as cell-based. The note with it: NCI-H1703, 72 h, read-out: Cytological experiment PDGERA IC50 (nM).
Method: as §4
[8] abbreviates: read-out: Cytological experiment CS1-1R Absolute IC50 (nM).
[9] abbreviates: read-out: Cytological experiment CSF-1R IC50 (nM).

T1 sequence (P07333 20-972): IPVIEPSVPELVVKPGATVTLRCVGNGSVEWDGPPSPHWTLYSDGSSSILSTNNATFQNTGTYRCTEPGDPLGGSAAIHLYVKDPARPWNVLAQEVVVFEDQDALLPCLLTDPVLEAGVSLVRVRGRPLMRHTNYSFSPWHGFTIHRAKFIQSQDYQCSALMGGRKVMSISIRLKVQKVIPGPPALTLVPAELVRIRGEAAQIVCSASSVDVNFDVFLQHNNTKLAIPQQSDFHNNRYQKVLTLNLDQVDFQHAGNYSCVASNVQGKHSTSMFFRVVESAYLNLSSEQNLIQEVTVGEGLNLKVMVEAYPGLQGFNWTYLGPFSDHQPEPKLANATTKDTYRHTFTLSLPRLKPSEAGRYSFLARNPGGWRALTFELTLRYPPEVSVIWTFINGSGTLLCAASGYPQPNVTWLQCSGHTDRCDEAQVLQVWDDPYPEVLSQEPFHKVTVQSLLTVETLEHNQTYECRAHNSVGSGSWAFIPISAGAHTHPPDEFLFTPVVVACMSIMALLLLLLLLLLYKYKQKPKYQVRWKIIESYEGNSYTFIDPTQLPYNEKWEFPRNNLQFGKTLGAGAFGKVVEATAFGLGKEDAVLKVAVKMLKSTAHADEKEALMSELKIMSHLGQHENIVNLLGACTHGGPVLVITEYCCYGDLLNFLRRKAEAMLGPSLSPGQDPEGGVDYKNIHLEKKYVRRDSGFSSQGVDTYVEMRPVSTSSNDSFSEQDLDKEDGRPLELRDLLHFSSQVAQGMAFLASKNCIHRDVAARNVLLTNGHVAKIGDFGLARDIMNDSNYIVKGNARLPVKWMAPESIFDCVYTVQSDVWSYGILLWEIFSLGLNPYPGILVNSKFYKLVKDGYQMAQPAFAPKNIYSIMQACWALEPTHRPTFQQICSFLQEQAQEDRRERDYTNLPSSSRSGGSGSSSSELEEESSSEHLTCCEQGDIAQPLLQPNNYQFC
KIT, sequence (P10721 26-976): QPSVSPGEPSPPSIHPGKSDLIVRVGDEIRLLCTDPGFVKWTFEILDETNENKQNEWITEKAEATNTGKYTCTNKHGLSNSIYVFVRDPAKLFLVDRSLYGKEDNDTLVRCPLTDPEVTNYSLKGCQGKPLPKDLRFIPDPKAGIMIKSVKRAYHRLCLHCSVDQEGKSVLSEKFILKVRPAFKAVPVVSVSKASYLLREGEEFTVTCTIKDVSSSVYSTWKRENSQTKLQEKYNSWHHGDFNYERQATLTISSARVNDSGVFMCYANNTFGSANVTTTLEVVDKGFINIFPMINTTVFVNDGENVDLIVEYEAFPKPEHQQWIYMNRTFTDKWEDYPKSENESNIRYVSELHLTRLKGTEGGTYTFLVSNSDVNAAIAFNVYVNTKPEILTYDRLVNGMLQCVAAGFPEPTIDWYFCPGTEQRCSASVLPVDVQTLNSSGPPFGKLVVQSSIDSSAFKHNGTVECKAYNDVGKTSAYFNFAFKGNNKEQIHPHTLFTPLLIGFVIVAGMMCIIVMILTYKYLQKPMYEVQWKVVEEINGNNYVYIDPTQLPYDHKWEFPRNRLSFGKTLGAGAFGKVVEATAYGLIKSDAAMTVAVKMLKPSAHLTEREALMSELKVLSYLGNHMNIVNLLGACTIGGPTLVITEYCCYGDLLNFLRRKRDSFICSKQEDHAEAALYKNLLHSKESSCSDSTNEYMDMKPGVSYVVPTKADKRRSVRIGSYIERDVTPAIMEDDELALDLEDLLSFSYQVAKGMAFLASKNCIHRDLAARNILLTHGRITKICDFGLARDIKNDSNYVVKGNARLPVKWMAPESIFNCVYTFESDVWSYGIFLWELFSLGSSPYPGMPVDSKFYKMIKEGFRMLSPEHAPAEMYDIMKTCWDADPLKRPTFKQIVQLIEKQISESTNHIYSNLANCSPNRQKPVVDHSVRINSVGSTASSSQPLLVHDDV
PDGFRA, sequence (P16234 24-1089): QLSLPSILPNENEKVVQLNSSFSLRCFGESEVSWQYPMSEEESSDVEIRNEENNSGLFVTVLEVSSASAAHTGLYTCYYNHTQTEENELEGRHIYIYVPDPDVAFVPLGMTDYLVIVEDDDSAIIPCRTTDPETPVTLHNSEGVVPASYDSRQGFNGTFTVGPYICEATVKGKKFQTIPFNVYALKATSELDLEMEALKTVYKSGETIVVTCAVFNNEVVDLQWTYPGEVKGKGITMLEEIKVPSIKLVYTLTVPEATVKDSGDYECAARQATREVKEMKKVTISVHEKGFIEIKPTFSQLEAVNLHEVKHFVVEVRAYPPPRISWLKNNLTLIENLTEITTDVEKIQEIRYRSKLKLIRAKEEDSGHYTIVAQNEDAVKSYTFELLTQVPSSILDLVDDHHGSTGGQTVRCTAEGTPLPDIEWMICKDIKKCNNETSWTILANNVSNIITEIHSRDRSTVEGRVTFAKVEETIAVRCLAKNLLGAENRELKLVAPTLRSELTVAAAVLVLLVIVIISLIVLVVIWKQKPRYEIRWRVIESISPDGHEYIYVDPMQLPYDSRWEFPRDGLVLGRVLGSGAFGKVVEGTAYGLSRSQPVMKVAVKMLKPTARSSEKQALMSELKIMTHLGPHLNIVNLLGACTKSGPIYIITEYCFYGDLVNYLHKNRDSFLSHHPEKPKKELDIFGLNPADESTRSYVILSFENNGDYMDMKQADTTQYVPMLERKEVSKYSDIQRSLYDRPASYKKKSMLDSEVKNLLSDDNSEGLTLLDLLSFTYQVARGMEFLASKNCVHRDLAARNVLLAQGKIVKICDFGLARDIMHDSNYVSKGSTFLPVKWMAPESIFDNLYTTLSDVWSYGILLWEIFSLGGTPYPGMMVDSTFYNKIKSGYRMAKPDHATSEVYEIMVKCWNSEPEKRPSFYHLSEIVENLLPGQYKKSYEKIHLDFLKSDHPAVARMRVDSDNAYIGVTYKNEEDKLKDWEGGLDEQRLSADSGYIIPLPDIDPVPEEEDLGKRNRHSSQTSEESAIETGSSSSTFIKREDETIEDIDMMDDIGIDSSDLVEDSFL

By IC50 is commonly meant the midpoint of a concentration-inhibition curve. Regarding `Cc1nc(NC(=O)N2CCC(C)(C)C2=O)ccc1Oc1ccnc(-c2cnn(C)c2)c1` [Example 1, 3,3-dimethyl-N-(6-methyl-5-((2-(1-methyl-1H-pyrazol-4-yl)pyridin-4-yl)oxy)pyridin-2-yl)-2-oxopyrrolidine-1-carboxamide], the IC50 was 19.5 nM in test [1]; 77 nM in test [2]; 1400 nM in test [3]; 24.1 nM in test [4] (setting [8]); 25 nM in test [4] (setting [9]); 1060 nM in test [5]. For the same compound, the IC50 in test [6] worked out at 5560 nM; in test [7], 2870 nM.

For `Cc1nc(NC(=O)N2CCCC(C)(C)C2=O)ccc1Oc1ccnc(-c2cnn(C)c2)c1` [Example 28, 3,3-dimethyl-N-(6-methyl-5-((2-(1-methyl-1H-pyrazol-4-yl)pyridin-4-yl)oxy)pyridin-2-yl)-2-oxopiperidine-1-carboxamide], the IC50 in test [1] worked out at 24.2 nM; in test [2], 8.48 nM; in test [3], 107 nM; in test [4] (setting [8]), 31.9 nM; in test [4] (setting [9]), 35.7 nM; in test [5] it was 940 nM. The half-inhibitory concentration (IC50) was found to be 10000 nM in test [6] and 9530 nM in test [7].

For the compound `Cc1nc(NC(=O)N2CCOC(C)(C)C2=O)ccc1Oc1ccnc(-c2cnn(C)c2)c1` [Example 29, 2,2-dimethyl-N-(6-methyl-5-((2-(1-methyl-1H-pyrazol-4-yl)pyridin-4-yl)oxy)pyridin-2-yl)-3-oxomorpholine-4-carboxamide], the IC50 was 52.2 nM in test [1]; 92.5 nM in test [2]; 931 nM in test [3]; 75.1 nM in test [4] (setting [8]); 76.3 nM in test [4] (setting [9]); greater than 2000 nM in test [5]. For the same compound, the IC50 in test [6] is greater than 18000 nM; in test [7], greater than 6000 nM.

`Cc1nc(NC(=O)N2CCC(C)(O)C2=O)ccc1Oc1ccnc(-c2cnn(C)c2)c1` (stereo not drawn) [Example 41, 3-hydroxy-3-methyl-N-(6-methyl-5-((2-(1-methyl-1H-pyrazol-4-yl)pyridin-4-yl)oxy)pyridin-2-yl)-2-oxopyrrolidine-1-carboxamide]: the IC50 was 445 nM in test [1]; greater than 2000 nM in test [4] (setting [8]); greater than 2000 nM in test [4] (setting [9]); greater than 18000 nM in test [5]; greater than 18000 nM in test [6]; greater than 18000 nM in test [7].

Turning to `CCC1(C)CCN(C(=O)Nc2ccc(Oc3ccnc(-c4cnn(C)c4)c3)c(C)n2)C1=O` (stereo not drawn) [Example 33, 3-ethyl-3-methyl-N-(6-methyl-5-((2-(1-methyl-1H-pyrazol-4-yl)pyridin-4-yl)oxy)pyridin-2-yl)-2-oxopyrrolidine-1-carboxamide], the IC50 in test [1] was 19.9 nM; in test [4] (setting [8]), 40.3 nM; in test [4] (setting [9]), 41.9 nM; in test [5] it was 535 nM; in test [6], greater than 6000 nM; in test [7], greater than 6000 nM.

For `CCC1(CC)CCN(C(=O)Nc2ccc(Oc3ccnc(-c4cnn(C)c4)c3)c(C)n2)C1=O` [Example 34, 3,3-diethyl-N-(6-methyl-5-((2-(1-methyl-1H-pyrazol-4-yl)pyridin-4-yl)oxy)pyridin-2-yl)-2-oxopyrrolidine-1-carboxamide], the IC50 was 51.7 nM in test [1]; 21.5 nM in test [4] (setting [8]); 21.3 nM in test [4] (setting [9]); 667 nM in test [5]; greater than 2000 nM in test [6]; 1330 nM in test [7].

As for `Cc1nc(NC(=O)N2CCC(C)(C)C2=O)ccc1Cc1ccnc(-c2cnn(C)c2)c1` [Example 21, 3,3-dimethyl-N-(6-methyl-5-((2-(1-methyl-1H-pyrazol-4-yl)pyridin-4-yl)methyl)pyridin-2-yl)-2-oxopyrrolidine-1-carboxamide], the IC50 in test [1] is 59.9 nM; in test [4] (setting [8]) it was 31.2 nM; in test [4] (setting [9]), 45.2 nM; in test [5] it was 727 nM; in test [6], greater than 2000 nM; in test [7] it was greater than 6000 nM.

Take `CCn1cc(-c2cc(Oc3ccc(NC(=O)N4CCC(C)(C)C4=O)nc3C)ccn2)cn1` [Example 6, N-(5-((2-(1-ethyl-1H-pyrazol-4-yl)pyridin-4-yl)oxy)-6-methylpyridin-2-yl)-3,3-dimethyl-2-oxopyrrolidine-1-carboxamide]: the IC50 in test [1] stood at 25.8 nM; in test [2], 167 nM; in test [3] it was 2450 nM; in test [4] (setting [8]), 36.6 nM; in test [4] (setting [9]), 42.9 nM; in test [5], 1670 nM. Besides, the IC50 in test [6] came to 9000 nM; in test [7], 6000 nM.

Turning to `Cc1nc(NC(=O)N2CCC(C)(C)C2=O)ccc1Oc1ccnc(-c2cnn(C3CC3)c2)c1` [Example 15, N-(5-((2-(1-cyclopropyl-1H-pyrazol-4-yl)pyridin-4-yl)oxy)-6-methylpyridin-2-yl)-3,3-dimethyl-2-oxopyrrolidine-1-carboxamide], the half-maximal inhibitory concentration (IC50) in test [1] was 20.7 nM; in test [4] (setting [8]) it was 38.7 nM; in test [4] (setting [9]), 64.4 nM; in test [5], greater than 1120 nM; in test [6] it was greater than 6000 nM; in test [7], greater than 6000 nM.

With `[2H]C([2H])([2H])n1cc(-c2cc(Oc3ccc(NC(=O)N4CCC(C)(C)C4=O)nc3C)ccn2)cn1` [Example 11, 3,3-dimethyl-N-(6-methyl-5-((2-(1-(methyl-d3)-1H-pyrazol-4-yl)pyridin-4-yl)oxy)pyridin-2-yl)-2-oxopyrrolidine-1-carboxamide], the IC50 in test [1] was 21.4 nM; in test [4] (setting [8]), 35.5 nM; in test [4] (setting [9]), 43.5 nM; in test [5], greater than 1120 nM; in test [6] it was greater than 6000 nM; in test [7] it was greater than 2000 nM.

For `Cc1nc(NC(=O)N2CCC(C)(C)C2=O)ccc1Oc1ccnc(-c2cnn(CCO)c2)c1` [Example 10, N-(5-((2-(1-(2-hydroxyethyl)-1H-pyrazol-4-yl)pyridin-4-yl)oxy)-6-methylpyridin-2-yl)-3,3-dimethyl-2-oxopyrrolidine-1-carboxamide], the 50% inhibitory concentration (IC50) was 56.3 nM in test [1]; 476 nM in test [2]; 13100 nM in test [3]; 140 nM in test [4] (setting [8]); 104 nM in test [4] (setting [9]); 4900 nM in test [5]. The IC50 came out at 18000 nM in test [6] and 6000 nM in test [7].

On to `Cc1nc(NC(=O)N2CCC3(CCCC3)C2=O)ccc1Oc1ccnc(-c2cnn(C)c2)c1` [Example 31, N-(6-methyl-5-((2-(1-methyl-1H-pyrazol-4-yl)pyridin-4-yl)oxy)pyridin-2-yl)-1-oxo-2-azaspiro[4.4]nonane-2-carboxamide], for which the IC50 worked out at 8.45 nM in test [1]; 19.4 nM in test [4] (setting [8]); 19.2 nM in test [4] (setting [9]); 190 nM in test [5]; 2980 nM in test [6]; 561 nM in test [7].

For the compound `Cn1cc(-c2cc(Oc3ccc(NC(=O)N4CCC(C)(C)C4=O)nc3)ccn2)cn1` [Example 2, 3,3-dimethyl-N-(5-((2-(1-methyl-1H-pyrazol-4-yl)pyridin-4-yl)oxy)pyridin-2-yl)-2-oxopyrrolidine-1-carboxamide], the IC50 worked out at 14.4 nM in test [1]; 59.8 nM in test [2]; 435 nM in test [3]; 23.1 nM in test [4] (setting [8]); 26.3 nM in test [4] (setting [9]); 158 nM in test [5]. In addition, the values for the IC50 in test [6] and in test [7] were 6000 nM and 18000 nM, respectively.

Consider `Cc1nc(NC(=O)N2CCC(C)C2=O)ccc1Oc1ccnc(-c2cnn(C)c2)c1` (stereo not drawn) [Example 32, 3-methyl-N-(6-methyl-5-((2-(1-methyl-1H-pyrazol-4-yl)pyridin-4-yl)oxy)pyridin-2-yl)-2-oxopyrrolidine-1-carboxamide], for which the IC50 in test [1] was 324 nM; in test [4] (setting [8]), 782 nM; in test [4] (setting [9]), 667 nM.
